What was measured:
[1] = tested on: glucose-derived fatty acid (FA) synthesis; assay: metabolism of D-[1,6-13C2] glucose into fatty acids via NMR mass spectrometry; format: cell-based
From the text: The molecular mechanisms by which CIC affects proliferation were examined. The function of CIC has been primarily linked to glucose-derived fatty acid (FA) synthesis, because of its role in citrate export. Therefore, the metabolism of D-[1,6-^13C2] glucose via NMR mass spectrometry was studied. […] Thus, depletion of lipids unlikely represents the only mechanism by which CIC inhibition affects tumor growth.

[2] = tested on: lung cancer H1299 cell lines; assay: tumor xenograft, lung cancer H1299 cells in nude mice; format: in vivo, female athymic balbc/nude mice; conditions: BTA 26 mg/kg intra-peritoneal three times a week
Experimental: (§2) To produce tumor xenografts, 5×10^6 cells were resuspended in PBS and injected subcutaneously in the flanks of female nude mice. […] Mice were pre-treated twice prior to the inoculation of tumor cell lines. Once detectable tumors started to form, their size was measured with a caliper in three dimensions. Serial measurements were made at two-three day intervals after the identification of the initial cellular mass to determine growth curves in vivo. Tumor volume was calculated using the formula for a prolate spheroid: volume=(4/3)×a^2b, where a is the width and b is the length. All animals were sacrificed when the tumors exceeded 1.5 cm. At the completion of experiments, tumors were excised, weighed and statistical significance of differences in tumor volume were made using two factor repeated measures analysis of variance followed by Fisher's last significant difference test for multiple comparisons.

[3] = Experimental: To produce tumor xenografts, 5×10^6 cells were resuspended in PBS and injected subcutaneously in the flanks of female nude mice. For drug treatments, mice were randomized to receive either PBS or a PBS solution of BTA at a concentration 26 mg/kg which was administered via intra-peritoneal route three times a week. Mice were pre-treated twice prior to the inoculation of tumor cell lines. Once detectable tumors started to form, their size was measured with a caliper in three dimensions. Serial measurements were made at two-three day intervals after the identification of the initial cellular mass to determine growth curves in vivo. Tumor volume was calculated using the formula for a prolate spheroid: volume=(4/3)×a^2b, where a is the width and b is the length. All animals were sacrificed when the tumors exceeded 1.5 cm. At the completion of experiments, tumors were excised, weighed and statistical significance of differences in tumor volume were made using two factor repeated measures analysis of variance followed by Fisher's last significant difference test for multiple comparisons. The trial administration of BTA to explore its toxic effects, was conducted on 8 non immuno-compromised mice, randomized in two groups, and injected for five consecutive months. Animals were monitored once a week for the presence of signs of disease, particularly neurological disturbances or weight loss, and they were weighted periodically.
[4] = tested on: lactate; assay: lactate levels in treated cells; format: cell-based
Experimental: (§1) The concentration of citrate, lactate, isocitrate, and malate were assessed using specific kits from BioVision (Milpitas, Calif.). Cellular ATP levels were determined via the ATP kit (Promega; Fitchburg, Wis.), while oxygen consumption rates were measured using the BD oxygen biosensor systems (OBS) from BD Bioscience (Franklin Lakes, N.J.). Triplicate samples of 50,000 cells were seeded onto 96-well OBS plates. The number of cells was determined at each time point by sampling cells seeded into side-by-side plates. Fluorescence was measured from the bottom of the well every 24 h and measurements were normalized by subtracting the reading from the same well prior to the addition of the cells (blank). For measurement of reactive oxygen species (ROS), H2DCFDA was used (Invitrogen). Mitochondrial mass was assessed by using mitotracker green (Invitrogen), as per manufacturer instructions, or nonyl acridine orange at a final concentration of 300 nM, followed by analysis by flow cytometry. Mitochondrial membrane potential (MMP) was studied with the JC1 assay kit from Cayman Chemical (Ann Arbor, Mich.).

[5] = biological target: T1, CIC (Homo sapiens, UniProt P53007); conditions: in vivo; cited from earlier work
T1 construct: citrate levels in cells expressing endogenous CIC (nM/well) were assessed in 293T cell lines harboring the pcDNA/TO vector; endogenous in cells; host or cells: 293T cells harbouring the empty pcDNA/TO vector
T1 sequence (P53007 14-311): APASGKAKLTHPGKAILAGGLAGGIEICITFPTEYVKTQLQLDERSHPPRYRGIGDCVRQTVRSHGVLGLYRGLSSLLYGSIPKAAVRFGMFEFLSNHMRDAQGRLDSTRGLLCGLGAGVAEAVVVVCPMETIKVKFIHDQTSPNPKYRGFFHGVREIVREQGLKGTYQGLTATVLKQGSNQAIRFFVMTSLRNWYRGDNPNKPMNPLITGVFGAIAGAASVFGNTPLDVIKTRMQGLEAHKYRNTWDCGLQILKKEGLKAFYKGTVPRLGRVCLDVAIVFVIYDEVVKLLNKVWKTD

[6] = tested on: bladder cancer cells derived from T24 cells; assay: tumor xenograft, bladder cancer cells derived from T24 in nude mice; format: in vivo, female athymic balbc/nude mice; conditions: BTA 26 mg/kg intra-peritoneal three times a week
Experimental: as §2

[7] = cell death by trypan blue exclusion in BTA-treated cells with or without rescue agents; format: cell-based
[8] = tested on: H1299 cells; assay: cell viability by trypan blue exclusion in H1299 cells; format: cell-based, human; conditions: 1 mM BTA, trypan blue exclusion (FIG. 2D)
Experimental: Negative values are due to subtraction of background rates. […] Cell viability was assessed with trypan blue exclusion.
Cells were grown in Dulbecco's modified Eagle's medium (DMEM, 5 mM glucose, with glutamine and pyruvate from Invitrogen; Carlsbad, Calif.) and supplemented with 10% fetal calf serum (FCS). Early passage cell lines or frozen pellets were used for screening of CIC expression levels (FIG. 1A). All the reagents for the study of complex I activity were purchased from Sigma-Aldrich (St. Louis, Mo.). The CIC specific shRNA vectors were purchased from Origene Technologies (Rockville, Md.). The vectors expressing human CIC untagged or Flag-Myc epitope tagged were also from Origene. The anti-CIC antibody was obtained from Santa Cruz Biotech (Santa Cruz, Calif.), employed at 1:1000 dilution in immuno-blot and at 1:100 in immuno-fluorescence; the anti-mHsp70 and anti-mitofilin antibody were from Novus Biological (Littleton, Colo.) employed at 1:500 in immuno-fluorescence and 1:1000 in immuno-blot; for the LC3 immuno-blot, a mixture of two antibodies was used each at 1:1000 dilution (Novus Biological). The LAMP-1 antibody was from Abcam (Cambridge, UK). The sequences of primers used were: the human cytochome c oxidase: forward: 5′-[…]-3′ (SEQ. ID NO: 1); Reverse:5′ […]-3′ (SEQ. ID NO: 2). […]

[9] = tested on: H1299 cells; assay: cell cycle analysis of H1299 cells under glucose restriction; format: cell-based, human; conditions: glucose restriction (2 mM Glucose), 1 mM BTA
Experimental: ATP (Panel B) and Oxygen consumption levels (Panel C) in cells cultured in 5 mM glucose and mock treated (DMSO, Control) or treated with BTA, or in cells expressing CIC or CIC-DN, 16 hours after treatments. […] The percentages of cells distributed in the G1-, S-, or G2-phases of the cells cycle are shown. Apoptotic cells are identified as the Sub-G1 (SG) population. […] Cells were stained with anti-Flag (green, panels 1 and 4) and anti-LC3 (red, panels 2 and 5) antibodies, and counterstained with DAPI. Merged images are shown in panels 3 and 6. The results of these immunofluorescence experiments were confirmed with cellular sub-fractionation experiments shown in Panel F. Cytoplasmic (c) and mitochondrial (m) fractions derived from naïve 293T cells (lanes 1,2) or 293T cells expressing CIC (lanes 3,4) or CIC-DN (lanes 5,6) or treated with BTA (lanes 7,8), were probed with anti-CIC, anti-LC3, or anti-mitofilin antibodies, as indicated. The two arrows in the LC3 blot indicate cytosolic (-I) or activated (-II) LC3 forms. […] All images shown were derived from the same autoradiogram at identical times of exposures, but lanes in between samples of interest were eliminated. […] The anti-mitofilin, anti-p62 (employed as a general autophagic marker), anti-CIC, or anti LC3 specific immuno-blots are shown.

[10] = tested on: breast cancer MDA-MB-231 cells; assay: tumor xenograft, breast cancer MDA-MB-231 cells in nude mice; format: in vivo, female athymic balbc/nude mice; conditions: MDA-MB-231 xenograft, BTA 26 mg/kg intra-peritoneal three times a week, single agent
Experimental: as §2

[11] = tested on: mitochondrial mass; assay: mitochondrial content by mitofilin and Nonyl-Acridine Orange (NOA); format: cell-based
Experimental: as §1

[12] = tested on: MDA-MB-231 cells; assay: dose dependent growth inhibition of BTA in MDA-MB-231 cells; format: cell-based, human; conditions: MBA-MD-231 cells, BTA dose response (FIG. 2B)
Experimental: Cells were grown in Dulbecco's modified Eagle's medium (DMEM, 5 mM glucose, with glutamine and pyruvate from Invitrogen; Carlsbad, Calif.) and supplemented with 10% fetal calf serum (FCS). Early passage cell lines or frozen pellets were used for screening of CIC expression levels (FIG. 1A). All the reagents for the study of complex I activity were purchased from Sigma-Aldrich (St. Louis, Mo.). The CIC specific shRNA vectors were purchased from Origene Technologies (Rockville, Md.). The vectors expressing human CIC untagged or Flag-Myc epitope tagged were also from Origene. The anti-CIC antibody was obtained from Santa Cruz Biotech (Santa Cruz, Calif.), employed at 1:1000 dilution in immuno-blot and at 1:100 in immuno-fluorescence; the anti-mHsp70 and anti-mitofilin antibody were from Novus Biological (Littleton, Colo.) employed at 1:500 in immuno-fluorescence and 1:1000 in immuno-blot; for the LC3 immuno-blot, a mixture of two antibodies was used each at 1:1000 dilution (Novus Biological). The LAMP-1 antibody was from Abcam (Cambridge, UK). The sequences of primers used were: the human cytochome c oxidase: forward: 5′-[…]-3′ (SEQ. ID NO: 1); Reverse:5′ […]-3′ (SEQ. ID NO: 2). The zebrafish NADH-dehydrogenase: forward: 5′-[…]-3′ (SEQ. ID NO: 3); reverse:5′ […]-3′ (SEQ. ID NO: 4). The zebrafish p53: forward: 5′-ACATGA […]-3′ (SEQ. ID NO: 5); Reverse: 5′ […] 3′ (SEQ. ID NO: 6).

[13] = tested on: LC3; assay: immuno-fluorescence and cellular sub-fractionation for LC3 recruitment to mitochondria; format: cell-based
Experimental: ATP (Panel B) and Oxygen consumption levels (Panel C) in cells cultured in 5 mM glucose and mock treated (DMSO, Control) or treated with BTA, or in cells expressing CIC or CIC-DN, 16 hours after treatments. […] The percentages of cells distributed in the G1-, S-, or G2-phases of the cells cycle are shown. Apoptotic cells are identified as the Sub-G1 (SG) population. […] Cells were stained with anti-Flag (green, panels 1 and 4) and anti-LC3 (red, panels 2 and 5) antibodies, and counterstained with DAPI. Merged images are shown in panels 3 and 6. […]
Cells were grown in Dulbecco's modified Eagle's medium (DMEM, 5 mM glucose, with glutamine and pyruvate from Invitrogen; Carlsbad, Calif.) and supplemented with 10% fetal calf serum (FCS). […] The anti-CIC antibody was obtained from Santa Cruz Biotech (Santa Cruz, Calif.), employed at 1:1000 dilution in immuno-blot and at 1:100 in immuno-fluorescence; the anti-mHsp70 and anti-mitofilin antibody were from Novus Biological (Littleton, Colo.) employed at 1:500 in immuno-fluorescence and 1:1000 in immuno-blot; for the LC3 immuno-blot, a mixture of two antibodies was used each at 1:1000 dilution (Novus Biological). […]

## O=C(O)c1cccc(C(=O)O)c1C(=O)O [BTA, 1,2,3-benzenetricarboxylic acid]
[1]; 16 hours after BTA treatment
  total FA levels: modestly reduced
[1]; D-[1,6-13C2] glucose
  ability of cells to convert glucose into FA: severely reduced the ability of cells to convert glucose into FA
[1]; later time points after BTA treatment
  total FA levels: increased
[2]
  anti-cancer activity (tumor volume): exhibited anti-cancer activity
[3]; mouse, in vivo
  evidence of illness or toxicity: no evidence of illness or toxicity
  evidence of toxicity: without showing any evidence of toxicity
[3]; non immuno-compromised mice, BTA twice a week for five consecutive months
  body weight: small but statistically significant reduction of the body weight
[4]
  levels of glucose-derived lactate: enhanced the levels of glucose-derived lactate
[5]
  CIC-dependent transport of citrate: suppresses CIC-dependent transport of citrate
[6]
  anti-cancer activity (tumor volume): exhibited anti-cancer activity
[7]; cells treated with BTA
  viability of treated cells: loss of viability
[8]
  cell growth / viability: growth inhibition
[9]
  apoptosis (Sub-G1 population): induction of apoptosis
[10]
  anti-cancer activity (tumor volume): exhibited anti-cancer activity
[11]; time course following BTA treatment (FIG. 5G)
  mitochondrial quantity (mitofilin): reduction of mitochondrial quantity as a function of time
[12]
  proliferation rates: decreased proliferation rates in a dose-dependent manner
[13]; 293T cells treated with BTA, sub-fractionation immuno-blot (FIG. 5F lane 8)
  LC3-II in the mitochondrial fraction: enrichment of LC3-II in the mitochondria
[13]; cells treated with BTA
  recruitment of active-lipidated LC3 and lysosomes to the mitochondria: recruitment of the autophagic machinery

## Cn1cnc(N)c2ncnc1-2 [Compound 3MA, 3-Methyladenine, reference compound]
[11]; 5 mM 3MA added to BTA-treated cells (FIG. 6A)
  mitochondrial amount (NOA) in BTA-treated cells: restored mitochondrial amount

## CC(=O)N[C@@H](CS)C(=O)O [NAC, N-acetyl-cysteine]
[7]; 5 mM methyl-pyruvate or 2 mM NAC added to BTA-treated cells (FIG. 5A)
  prevention of loss of viability in cells treated with BTA: partially prevented loss of viability

## CCCCCCCCCCCCCCCC(=O)O [palmitic acid]
[7]; incubation of BTA-treated cells with palmitic acid
  rescue of proliferation of BTA-treated cells: not sufficient to rescue proliferation

— patent US9545388B2, “Benzenetricarboxylic acid and methods of use” (GEORGETOWN UNIVERSITY, priority 2012, dated 2017)
